Source: ChEMBL document CHEMBL4334493, “14- and 15-membered lactone macrolides and their analogues and hybrids: structure, molecular mechanism of action and biological activity” (Eur J Med Chem, 2019)
≈ marks a conversion by molar mass, not a printed value.

How the values were obtained:
Haemophilus influenzae [1] = assay: Antibacterial activity against Haemophilus influenzae 33929; type: functional
Haemophilus influenzae [2] = assay: Antibacterial activity against Haemophilus influenzae 49247; type: functional
[3] = tested on: Staphylococcus epidermidis; assay: Antibacterial activity against methicillin resistant Staphylococcus epidermidis by broth microdilution method; type: functional
Haemophilus influenzae [4] = assay: Antibacterial activity against Haemophilus influenzae by broth microdilution method; type: functional
Staphylococcus aureus [5] = assay: Antibacterial activity against methicillin resistant Staphylococcus aureus by broth microdilution method; type: functional
Enterococcus faecalis [6] = assay: Antibacterial activity against Enterococcus faecalis by broth microdilution method; type: functional
[7] = tested on: Staphylococcus epidermidis; assay: Antibacterial activity against methicillin susceptible Staphylococcus epidermidis by broth microdilution method; type: functional
Staphylococcus aureus [8] = assay: Antibacterial activity against methicillin/erythromycin susceptible Staphylococcus aureus by broth microdilution method; type: functional
Staphylococcus aureus [9] = assay: Antibacterial activity against methicillin susceptible and erythromycin resistant Staphylococcus aureus by broth microdilution method; type: functional
[10] = tested on: Staphylococcus haemolyticus; assay: Antibacterial activity against Staphylococcus haemolyticus by broth microdilution method; type: functional
Streptococcus pneumoniae [11] = assay: Antibacterial activity against Streptococcus pneumoniae by broth microdilution method; type: functional
Enterococcus faecium [12] = assay: Antibacterial activity against Enterococcus faecium 568 after 24 hrs by broth microdilution method; type: functional; details: Enterococcus faecium, 568, 24 h
Enterococcus faecium [13] = assay: Antibacterial activity against Enterococcus faecium 569 after 24 hrs by broth microdilution method; type: functional; details: Enterococcus faecium, 569, 24 h
Staphylococcus aureus [14] = assay: Antibacterial activity against Staphylococcus aureus 10 after 24 hrs by broth microdilution method; type: functional; details: Staphylococcus aureus, 10, 24 h
Streptococcus pyogenes [15] = assay: Antibacterial activity against Streptococcus pyogenes ATCC 19615 after 24 hrs by broth microdilution method; type: functional; details: ATCC 19615, 24 h
Escherichia coli [16] = assay: Antibacterial activity against Escherichia coli ECM1888 after 24 hrs by broth microdilution method; type: functional; details: ECM1888, 24 h
Mannheimia haemolytica = assay: Antibacterial activity against Mannheimia haemolytica IATCC 33396 after 24 hrs by broth microdilution method; type: functional; details: IATCC 33396, 24 h
Staphylococcus aureus [17] = assay: Antibacterial activity against Staphylococcus aureus ATCC 25923 after 24 hrs by broth microdilution method; type: functional; details: ATCC 25923, 24 h
Streptococcus pneumoniae [18] = assay: Antibacterial activity against Streptococcus pneumoniae ATCC 49619 after 24 hrs by broth microdilution method; type: functional; details: ATCC 49619, 24 h
Pasteurella multocida = assay: Antibacterial activity against Pasteurella multocida IATCC 11039 after 24 hrs by broth microdilution method; type: functional; details: IATCC 11039, 24 h
[19] = tested on: Staphylococcus epidermidis; assay: Antibacterial activity against Staphylococcus epidermidis ATCC 12228 after 24 hrs by broth microdilution method; type: functional; details: ATCC 12228, 24 h
Escherichia coli [20] = assay: Antibacterial activity against Escherichia coli leuS ANA395 after 24 hrs by broth microdilution method; type: functional; details: leuS ANA395, 24 h
Cutibacterium acnes = assay: Antibacterial activity against Propionibacterium acnes ATCC 6919 after 24 hrs by broth microdilution method; type: functional; details: ATCC 6919, 24 h
Histophilus somni = assay: Antibacterial activity against Histophilus somni ATCC 700025 after 24 hrs by broth microdilution method; type: functional; details: ATCC 700025, 24 h
Streptococcus pneumoniae [21] = assay: Antibacterial activity against Streptococcus pneumoniae AB11; type: functional
Streptococcus pneumoniae [22] = assay: Antibacterial activity against Streptococcus pneumoniae ATCC 49619; type: functional
Staphylococcus aureus [23] = assay: Antibacterial activity against Staphylococcus aureus; type: functional
Streptococcus pneumoniae [24] = assay: Antibacterial activity against Streptococcus pneumoniae A22072; type: functional
Streptococcus pyogenes [25] = assay: Antibacterial activity against Streptococcus pyogenes R2; type: functional
Staphylococcus aureus [26] = assay: Antibacterial activity against Staphylococcus aureus ATCC 25923; type: functional
Streptococcus pneumoniae [27] = assay: Antibacterial activity against Streptococcus pneumoniae B1; type: functional
Streptococcus pyogenes [28] = assay: Antibacterial activity against Streptococcus pyogenes S2; type: functional
[29] = tested on: Staphylococcus epidermidis; assay: Antibacterial activity against Staphylococcus epidermidis ATCC 12228 by NCCLS protocol based broth microdilution method; type: functional
Pseudomonas aeruginosa = assay: Antibacterial activity against Pseudomonas aeruginosa 27853 by NCCLS protocol based broth microdilution method; type: functional
Staphylococcus aureus [30] = assay: Antibacterial activity against Staphylococcus aureus ATCC 25923 by NCCLS protocol based broth microdilution method; type: functional
Escherichia coli [31] = assay: Antibacterial activity against Escherichia coli ATCC 25922 by NCCLS protocol based broth microdilution method; type: functional
Enterococcus faecalis [32] = assay: Antibacterial activity against Enterococcus faecalis ATCC 29212 by NCCLS protocol based broth microdilution method; type: functional
Klebsiella pneumoniae = assay: Antibacterial activity against Klebsiella pneumoniae 13883 by NCCLS protocol based broth microdilution method; type: functional
Streptococcus pneumoniae [33] = assay: Antibacterial activity against Streptococcus pneumoniae 49619 by NCCLS protocol based broth microdilution method; type: functional
[34] = Antibacterial activity against Salmonella choleraesuis 14028 by NCCLS protocol based broth microdilution method; type: functional, Salmonella enterica subsp. enterica serovar Choleraesuis; details: Salmonella enterica

CC[C@H]1OC(=O)[C@H](C)C(=O)[C@H](C)[C@@H](O[C@@H]2O[C@H](C)C[C@H](N(C)C)[C@H]2O)[C@@]2(C)C[C@@H](C)/C(=N\C(C)=O)[C@H](C)[C@@H](OC/C(=N\OCc3ccc(-c4ccno4)cn3)CO2)[C@]1(C)O
MIC (Haemophilus influenzae [1]): 4 µg/mL (≈ 4.75 µM)
MIC (Haemophilus influenzae [2]): 4 µg/mL (≈ 4.75 µM)

CC[C@H]1OC(=O)[C@H](C)C(=O)[C@H](C)[C@@H](O[C@@H]2O[C@H](C)C[C@H](N(C)C)[C@H]2O)[C@](C)(OC)C[C@@H](C)C(=O)[C@H](C)[C@H]2N(CCCOC(=O)Nc3cccc(C)c3)C(=O)O[C@]12C
MIC50 [3]: 1 to 128 µg/mL (≈ 1.24 to 159 µM)
MIC50 (Haemophilus influenzae [4]): 4 to 8 µg/mL (≈ 4.98 to 9.95 µM)
MIC50 (Staphylococcus aureus [5]): 128 to 256 µg/mL (≈ 159 to 318 µM)
MIC50 (Enterococcus faecalis [6]): > 256 µg/mL
MIC50 [7]: 0.031 µg/mL (≈ 0.0386 µM)
MIC50 (Staphylococcus aureus [8]): 0.125 µg/mL (≈ 0.155 µM)
MIC50 (Staphylococcus aureus [9]): 0.25 µg/mL (≈ 0.311 µM)
MIC50 [10]: 1 to 2 µg/mL (≈ 1.24 to 2.49 µM)
MIC50 (Streptococcus pneumoniae [11]): 0.062 to 0.125 µg/mL (≈ 0.0771 to 0.155 µM)

CC[C@H]1OC(=O)[C@H](C)[C@@H](O[C@H]2C[C@@](C)(OC)[C@@H](OC(=O)NCCCNC(=O)CCc3cccc4c3B(O)OC4)[C@H](C)O2)[C@H](C)[C@@H](O[C@@H]2O[C@H](C)C[C@H](N(C)C)[C@H]2O)[C@](C)(O)C[C@@H](C)CN(C)[C@H](C)[C@H]2OC(=O)O[C@@]21C
MIC (Enterococcus faecium [12]): 0.13 µg/mL (≈ 0.122 µM)
MIC (Enterococcus faecium [13]): 2 µg/mL (≈ 1.88 µM)
MIC (Staphylococcus aureus [14]): 0.5 µg/mL (≈ 0.47 µM)
MIC (Streptococcus pyogenes [15]): 0.25 µg/mL (≈ 0.235 µM)
MIC (Escherichia coli [16]): 8 µg/mL (≈ 7.53 µM)
MIC (Mannheimia haemolytica): 8 µg/mL (≈ 7.53 µM)
MIC (Staphylococcus aureus [17]): 4 µg/mL (≈ 3.76 µM)
MIC (Streptococcus pneumoniae [18]): 0.13 µg/mL (≈ 0.122 µM)
MIC (Pasteurella multocida): 4 µg/mL (≈ 3.76 µM)
MIC [19]: 8 µg/mL (≈ 7.53 µM)
MIC (Escherichia coli [20]): 8 µg/mL (≈ 7.53 µM)
MIC (Cutibacterium acnes): ≤ 0.12 µg/mL
MIC (Histophilus somni): 4 µg/mL (≈ 3.76 µM)

CC[C@H]1OC(=O)[C@H](C)[C@@H](O[C@H]2C[C@@](C)(OC)[C@@H](OC(=O)NCc3cccc(Cl)c3)[C@H](C)O2)[C@H](C)[C@@H](OC2O[C@H](C)C[C@H](N(C)C)[C@H]2O)[C@]2(C)C[C@@H](C)/C(=N\[C@H](C)[C@H]3OC(=O)O[C@@]31C)O2 (some centres not stated)
MIC (Streptococcus pneumoniae [21]): 16 µg/mL (≈ 17.3 µM)
MIC (Streptococcus pneumoniae [22]): 0.03 µg/mL (≈ 0.0324 µM)
MIC (Staphylococcus aureus [23]): 32 µg/mL (≈ 34.6 µM)
MIC (Streptococcus pneumoniae [24]): 4 µg/mL (≈ 4.33 µM)
MIC (Streptococcus pyogenes [25]): 64 µg/mL (≈ 69.2 µM)
MIC (Staphylococcus aureus [26]): 8 µg/mL (≈ 8.65 µM)
MIC (Streptococcus pneumoniae [27]): 16 µg/mL (≈ 17.3 µM)
MIC (Streptococcus pyogenes [28]): 1 µg/mL (≈ 1.08 µM)

CC[C@H]1OC(=O)[C@H](C)C(=O)[C@H](C)[C@@H](O[C@@H]2O[C@H](C)C[C@H](N(C)C)[C@H]2O)[C@@]2(C)C[C@@H](C)C(=O)[C@H](C)[C@@H](OC/C(=N\OCc3ccc(-c4nc(N)cs4)cn3)CO2)[C@]1(C)O
MIC (Haemophilus influenzae [1]): 2 µg/mL (≈ 2.4 µM)
MIC (Haemophilus influenzae [2]): 1 µg/mL (≈ 1.2 µM)

CC[C@H]1OC(=O)[C@H](C)[C@@H](O[C@H]2C[C@@](C)(OC)[C@@H](OC(=O)NC[C@H]3OB(O)c4ccccc43)[C@H](C)O2)[C@H](C)[C@@H](O[C@@H]2O[C@H](C)C[C@H](N(C)C)[C@H]2O)[C@](C)(OC)C[C@@H](C)C(=O)[C@H](C)[C@@H](O)[C@]1(C)O
MIC [29]: 0.5 µg/mL (≈ 0.534 µM)
MIC (Pseudomonas aeruginosa): > 64 µg/mL
MIC (Staphylococcus aureus [30]): 2 µg/mL (≈ 2.13 µM)
MIC (Escherichia coli [31]): > 64 µg/mL
MIC (Enterococcus faecalis [32]): 4 µg/mL (≈ 4.27 µM)
MIC (Klebsiella pneumoniae): > 64 µg/mL
MIC (Streptococcus pneumoniae [33]): 0.5 µg/mL (≈ 0.534 µM)
MIC [34]: > 64 µg/mL
